Experiments:
[1] = target: human full length PDE3B (Homo sapiens (Human), UniProt Q13370); experiment: Assay 5 PDE3B enzyme inhibition (3H-cAMP SPA); type: biochemical; conditions: Sf9 cell extract
Method: (§1) The commercially available 3H-cAMP Scintillation Proximity Assay (SPA, Perkin Elmer) system was used for enzyme inhibition studies. For the determination of the in vitro effect of example compounds on the PDE3B reactions 2 μl of the respective example compound solution in DMSO (serial dilutions) were placed in wells of microtiter plates (Isoplate-96/200W; Perkin Elmer). 50 μl of a dilution of PDE3B cell extract from Sf9 cells overexpressing human full length PDE3B (SB Drug Discovery, UK) in buffer A (50 mM Tris/HCl pH 7.5, 8.3 mM MgCl2, 1.7 mM EDTA, 0.2% BSA) was added. The dilution of the PDE3B cell extract was chosen such that the reaction kinetics was linear and less than 70% of the substrate was consumed (typical dilution 1:6000). The reaction was started by addition of 50 μl (0.025 μCi) of 1:2000 in buffer A w/o BSA diluted substrate [8-3H]adenosine 3′, 5′-cyclic phosphate (1 μCi/μl; Perkin Elmer). After incubation at room temperature for 60 min, the reaction was stopped by addition of 25 μl of a suspension containing 18 mg/ml yttrium scintillation proximity beads (Perkin Elmer) in water. The microtiter plates were sealed and measured in a Microbeta scintillation counter (PerkinElmer Wallac). IC50 values were determined from sigmoidal curves by plotting percentage PDE3B activity vs log compound concentration.

[2] = test system: HeLa cells; experiment: Assay 1 cell proliferation measurement (CTG, 72 h), HeLa; type: cell-based, human; conditions: Homo sapiens, HeLa; Assay 1, 72 h, Cell Titer Glo; read-out: HeLa IC50 [nM] (Cervical cancer)
Method: Cell Proliferation Measurement
The antiproliferative activity of the compounds of the general formula (I) was examined in vitro in human cancer cells. For this purpose, the appropriate number of cells (Hela: 800; SK-MEL-3: 1000; A549: 800) were plated in 384-well plates with appropriate growth medium ((A549: DMEM/Ham's F12 (Biochrom; #FG 4815 with stabile Glutamine), FCS 10% final (Biochrom; #S 0415); Hela: DMEM/Ham's F12 (Biochrom; #FG 4815 with stabile Glutamine), FCS 10% final (Biochrom; #S 0415); SK-MEL-3: McCoy's 5A (Biochrom; #F 1015), FCS 10% final (Biochrom; #S 0415), L-Alanyl-L-Glutamine final: 2 mM, (Biochrom; #K 0302)) and incubated at 37° C. overnight. After 24 h, cells on one plate (0 h plate) were treated with 30 μl/cavity of CTG solution (Promega Cell Titer Glo (catalogue #G755B and G756B)) and incubated at room temperature for 10 min, and luminescence was measured by means of a VICTOR V (Perkin Elmer), in order to determine cell viability on commencement of treatment. The cells on the test plate were treated with the compounds of the general formula (I) as and incubated at 37° C. for 72 h. The compounds were added to the cells by means of an HP D300 digital dispenser in a 10-step 2.5-fold dilution series generally starting at a maximum final drug concentration of 100 nM. As control, the cells were treated with vehicle (DMSO at 0.3% final concentration). After 72 h, the cells were treated with 30 μl/cavity of CTG solution (Promega Cell Titer Glo (catalogue #G755B and G756B)) and incubated at room temperature for 10 min. and luminescence was measured by means of a VICTOR V (Perkin Elmer), in order to determine cell viability at the end of treatment. The percentage effect on cell growth and the IC50 derived therefrom were determined for each test substance using the values from the 0 h plate […] and the DMSO control […]. The IC50 values were calculated using a 4-parameter fit.

[3] = target: human full length PDE3A (Homo sapiens (Human), UniProt Q14432); experiment: Assay 4 PDE3A enzyme inhibition (3H-cAMP SPA); type: biochemical; conditions: Sf9 cell extract
human full length PDE3A, sequence (Q14432 whole entry): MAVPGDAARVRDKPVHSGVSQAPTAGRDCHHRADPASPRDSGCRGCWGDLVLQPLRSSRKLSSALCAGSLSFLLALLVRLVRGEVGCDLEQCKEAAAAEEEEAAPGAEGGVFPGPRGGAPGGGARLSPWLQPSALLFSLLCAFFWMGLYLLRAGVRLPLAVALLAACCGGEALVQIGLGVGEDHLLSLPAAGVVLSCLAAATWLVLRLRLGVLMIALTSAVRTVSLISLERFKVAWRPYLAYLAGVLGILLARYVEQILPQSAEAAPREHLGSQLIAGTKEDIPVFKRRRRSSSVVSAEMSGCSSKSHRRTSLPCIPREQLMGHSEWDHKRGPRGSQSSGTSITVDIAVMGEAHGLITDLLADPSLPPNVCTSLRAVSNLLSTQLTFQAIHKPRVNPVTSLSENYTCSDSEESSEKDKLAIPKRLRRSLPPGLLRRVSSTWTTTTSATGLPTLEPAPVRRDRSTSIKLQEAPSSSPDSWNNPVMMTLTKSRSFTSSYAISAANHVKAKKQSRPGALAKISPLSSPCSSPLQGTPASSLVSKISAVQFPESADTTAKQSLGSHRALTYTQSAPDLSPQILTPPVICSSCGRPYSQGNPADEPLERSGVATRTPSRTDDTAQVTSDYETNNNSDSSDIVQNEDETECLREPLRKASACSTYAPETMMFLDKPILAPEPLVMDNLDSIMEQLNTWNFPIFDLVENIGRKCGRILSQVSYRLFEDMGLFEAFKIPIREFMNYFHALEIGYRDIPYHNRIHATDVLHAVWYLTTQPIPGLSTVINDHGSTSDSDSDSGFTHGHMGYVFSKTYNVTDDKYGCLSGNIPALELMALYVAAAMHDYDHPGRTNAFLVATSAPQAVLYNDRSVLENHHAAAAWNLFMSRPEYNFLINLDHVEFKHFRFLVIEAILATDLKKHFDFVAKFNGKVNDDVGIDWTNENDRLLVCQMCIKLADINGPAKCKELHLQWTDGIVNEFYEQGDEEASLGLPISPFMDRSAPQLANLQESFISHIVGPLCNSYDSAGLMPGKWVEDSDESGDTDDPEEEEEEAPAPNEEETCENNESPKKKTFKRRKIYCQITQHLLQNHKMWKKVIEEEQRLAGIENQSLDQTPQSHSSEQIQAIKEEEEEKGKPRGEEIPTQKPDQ
Method: Assay 4 Method for PDE3A Enzyme Inhibition
as §1, with “PDE3A” for “PDE3B”, “1:5000).” for “1:6000).”

human full length PDE3B, sequence (Q13370 whole entry): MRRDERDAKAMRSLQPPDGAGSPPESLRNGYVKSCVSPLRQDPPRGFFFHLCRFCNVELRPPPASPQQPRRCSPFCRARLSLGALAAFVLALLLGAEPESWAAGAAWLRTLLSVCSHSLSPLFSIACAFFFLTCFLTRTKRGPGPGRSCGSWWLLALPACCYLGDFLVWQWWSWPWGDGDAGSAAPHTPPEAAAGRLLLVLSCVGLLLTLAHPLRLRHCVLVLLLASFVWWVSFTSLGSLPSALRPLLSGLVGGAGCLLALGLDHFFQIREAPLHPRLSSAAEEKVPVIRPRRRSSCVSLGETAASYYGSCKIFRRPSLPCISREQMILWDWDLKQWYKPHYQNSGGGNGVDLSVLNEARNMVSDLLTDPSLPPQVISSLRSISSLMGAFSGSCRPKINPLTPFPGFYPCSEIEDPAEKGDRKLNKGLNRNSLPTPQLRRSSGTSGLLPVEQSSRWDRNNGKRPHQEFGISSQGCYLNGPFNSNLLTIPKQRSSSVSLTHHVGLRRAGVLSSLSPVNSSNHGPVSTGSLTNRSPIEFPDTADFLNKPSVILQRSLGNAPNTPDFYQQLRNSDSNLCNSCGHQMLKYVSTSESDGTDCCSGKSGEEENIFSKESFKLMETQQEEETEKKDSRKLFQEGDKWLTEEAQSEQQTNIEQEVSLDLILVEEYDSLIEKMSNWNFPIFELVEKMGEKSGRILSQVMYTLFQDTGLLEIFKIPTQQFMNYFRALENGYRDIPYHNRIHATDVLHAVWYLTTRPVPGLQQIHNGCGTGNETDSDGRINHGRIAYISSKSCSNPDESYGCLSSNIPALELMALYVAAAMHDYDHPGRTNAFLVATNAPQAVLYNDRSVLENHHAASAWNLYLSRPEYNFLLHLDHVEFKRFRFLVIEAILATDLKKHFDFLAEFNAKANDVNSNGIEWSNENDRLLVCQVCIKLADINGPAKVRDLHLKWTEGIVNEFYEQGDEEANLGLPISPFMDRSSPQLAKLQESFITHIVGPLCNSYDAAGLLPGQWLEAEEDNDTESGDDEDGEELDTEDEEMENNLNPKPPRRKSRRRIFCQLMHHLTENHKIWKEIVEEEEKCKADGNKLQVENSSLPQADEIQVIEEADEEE

Compound	IC50 [1]	IC50 [2]	IC50 [3]
O=C1NN=C(c2ccc(N3CCCC(O)C3)c(C(F)(F)F)c2)CO1 (racemic) [Example 229, (rac)-5-[4-(3-hydroxypiperidin-1-yl)-3-(trifluoromethyl)phenyl]-3,6-dihydro-2H-1,3,4-oxadiazin-2-one]	67 nM	1 nM	82 nM
NC(=O)C1CCCN(c2ccc(C3=NNC(=O)OC3)cc2C(F)(F)F)C1 (racemic) [Example 230, (rac)-1-[4-(2-Oxo-3,6-dihydro-2H-1,3,4-oxadiazin-5-yl)-2-(trifluoromethyl)phenyl]piperidine-3-carboxamide]	100 nM	7 nM	58 nM
COCC(O)CNc1ccc(C2=NNC(=O)OC2)cc1C(F)(F)F (racemic) [Example 235, (rac)-5-{4-[(2-Hydroxy-3-methoxypropyl)amino]-3-(trifluoromethyl)phenyl}-3,6-dihydro-2H-1,3,4-oxadiazin-2-one]	180 nM	4 nM	170 nM
CCOC(C)CNc1ccc(C2=NNC(=O)OC2)cc1C(F)(F)F (racemic) [Example 241, (rac)-5-{4-[(2-Ethoxypropyl)amino]-3-(trifluoromethyl)phenyl}-3,6-dihydro-2H-1,3,4-oxadiazin-2-one]	130 nM	6 nM	66 nM
COC(C)CNc1ccc(C2=NNC(=O)OC2)cc1C(F)(F)F (racemic) [Example 242, (rac)-5-{4-[(2-Methoxypropyl)amino]-3-(trifluoromethyl)phenyl}-3,6-dihydro-2H-1,3,4-oxadiazin-2-one]	130 nM	2 nM	92 nM
O=C1NN=C(c2ccc(NCC3CCOC3)c(C(F)(F)F)c2)CO1 (racemic) [Example 245, (rac)-5-[4-{[(Oxolan-3-yl)methyl]amino}-3-(trifluoromethyl)phenyl]-3,6-dihydro-2H-1,3,4-oxadiazin-2-one]	100 nM	3 nM	75 nM
O=C1CCC(CNc2ccc(C3=NNC(=O)OC3)cc2C(F)(F)F)CN1 (racemic) [Example 247, (rac)-5-[4-{[(6-Oxopiperidin-3-yl)methyl]amino}-3-(trifluoromethyl)phenyl]-3,6-dihydro-2H-1,3,4-oxadiazin-2-one]	180 nM	10 nM	65 nM
CC1(C)CC1CNc1ccc(C2=NNC(=O)OC2)cc1C(F)(F)F (racemic) [Example 248, (rac)-5-[4-{[(2,2-Dimethylcyclopropyl)methyl]amino}-3-(trifluoromethyl)phenyl]-3,6-dihydro-2H-1,3,4-oxadiazin-2-one]	140 nM	6 nM	61 nM
O=C1NN=C(c2ccc(N3CCC(O)CC3)c(C(F)(F)F)c2)CO1 [Example 227, 5-[4-(4-Hydroxypiperidin-1-yl)-3-(trifluoromethyl)phenyl]-3,6-dihydro-2H-1,3,4-oxadiazin-2-one]	9 nM	1 nM	13 nM
CC[C@@H](CO)Nc1ccc(C2=NNC(=O)OC2)cc1C(F)(F)F [Example 228, 5-[4-{[(2S)-1-Hydroxybutan-2-yl]amino}-3-(trifluoromethyl)phenyl]-3,6-dihydro-2H-1,3,4-oxadiazin-2-one]	920 nM	7 nM	400 nM
CC(C)(CO)CNc1ccc(C2=NNC(=O)OC2)cc1C(F)(F)F [Example 231, 5-{4-[(3-Hydroxy-2,2-dimethylpropyl)amino]-3-(trifluoromethyl)phenyl}-3,6-dihydro-2H-1,3,4-oxadiazin-2-one]	110 nM	2 nM	100 nM
O=C1NN=C(c2ccc(N[C@@H]3C[C@@H]4CC[C@@H]3C4)c(C(F)(F)F)c2)CO1 [Example 233, 5-[4-{[(1R,2R,4R)-Bicyclo[2.2.1]heptan-2-yl]amino}-3-(trifluoromethyl)phenyl]-3,6-dihydro-2H-1,3,4-oxadiazin-2-one]	250 nM	8 nM	86 nM
O=C1NN=C(c2ccc(N3CC[C@H](O)C3)c(C(F)(F)F)c2)CO1 [Example 234, 5-{4-[(3S)-3-Hydroxypyrrolidin-1-yl]-3-(trifluoromethyl)phenyl}-3,6-dihydro-2H-1,3,4-oxadiazin-2-one]	73 nM	2 nM	78 nM
Cn1nccc1CNc1ccc(C2=NNC(=O)OC2)cc1C(F)(F)F [Example 236, 5-[4-{[(1-Methyl-1H-pyrazol-5-yl)methyl]amino}-3-(trifluoromethyl)phenyl]-3,6-dihydro-2H-1,3,4-oxadiazin-2-one]	54 nM	4 nM	45 nM
O=C1NN=C(c2ccc(NCc3cc[nH]n3)c(C(F)(F)F)c2)CO1 [Example 237, 5-[4-{[(1H-Pyrazol-3-yl)methyl]amino}-3-(trifluoromethyl)phenyl]-3,6-dihydro-2H-1,3,4-oxadiazin-2-one]	140 nM	0.4 nM	120 nM
O=C1NN=C(c2ccc(NCCn3cccn3)c(C(F)(F)F)c2)CO1 [Example 238, 5-[4-{[2-(1H-Pyrazol-1-yl)ethyl]amino}-3-(trifluoromethyl)phenyl]-3,6-dihydro-2H-1,3,4-oxadiazin-2-one]	300 nM	7 nM	88 nM
CCN(CCC#N)c1ccc(C2=NNC(=O)OC2)cc1C(F)(F)F [Example 314, 3-{ethyl[4-(2-oxo-3,6-dihydro-2H-1,3,4-oxadiazin-5-yl)-2-(trifluoromethyl)phenyl]amino}propanenitrile]	–	> 100 nM	–
CCN1CCCC1CNc1ccc(C2=NNC(=O)OC2)cc1C(F)(F)F (centres unmarked) [Example 315, 5-[4-{[(1-ethylpyrrolidin-2-yl)methyl]amino}-3-(trifluoromethyl)phenyl]-3,6-dihydro-2H-1,3,4-oxadiazin-2-one]	–	> 100 nM	–
CC(=O)NCCNc1ccc(C2=NNC(=O)OC2)cc1C(F)(F)F [Example 316, N-{2-[4-(2-oxo-3,6-dihydro-2H-1,3,4-oxadiazin-5-yl)-2-(trifluoromethyl)anilino]ethyl}acetamide]	–	> 100 nM	–
O=C1NN=C(c2ccc(NCCN3CCCCC3)c(C(F)(F)F)c2)CO1 [Example 317, 5-[4-{[2-(piperidin-1-yl)ethyl]amino}-3-(trifluoromethyl)phenyl]-3,6-dihydro-2H-1,3,4-oxadiazin-2-one]	–	> 100 nM	–
CN1CCCC1CCNc1ccc(C2=NNC(=O)OC2)cc1C(F)(F)F (centres unmarked) [Example 318, 5-[4-{[2-(1-methylpyrrolidin-2-yl)ethyl]amino}-3-(trifluoromethyl)phenyl]-3,6-dihydro-2H-1,3,4-oxadiazin-2-one]	–	> 100 nM	–

From patent US11427553B2, “Dihydrooxadiazinones” (Bayer Aktiengesellschaft, priority 2017, dated 2022)
